The target in series [1] is T1, Cytochrome P450 2C19 (Homo sapiens, UniProt P33261). The series is described as follows: Activity of recombinant human CYP2C19 expressed in Saccharomyces cerevisiae AH22 cells assessed as enzyme-mediated compound formation treated with sesamin at 2 to 20 uM after 15 mins by HPLC analysis in presence of NADPH. It counts as ADME, cell-based. Conditions: ah22, 0.25 h.

The test system of a further series is Liver microsome. The series is described as follows: Drug level in human liver microsomes treated with sesamin after 30 mins by HPLC analysis in presence of NADPH. It counts as ADME. The note with it: 0.5 h. On the technique in general: Microsomes from liver hold many membrane-bound enzymes, among them those of drug oxidation.
The nature of series [2]: Drug metabolism in human liver microsomes assessed as CYP450-mediated catecholization per mg of protein after 10 to 30 mins by HPLC analysis in presence of NADPH. The class given is ADME.
The target in the next series is Cytochrome P450 2C9 (Homo sapiens, UniProt P11712). Nature of the series: Activity of recombinant human CYP2C9 expressed in Saccharomyces cerevisiae AH22 cells assessed as enzyme-mediated sesamin dicatechol formation after 15 mins by HPLC analysis in presence of NADPH. The class given is ADME, cell-based. The note with it: ah22, 0.25 h.
For series [3], the system named is CYP450. Nature of the series: Drug metabolism in human liver microsomes assessed as CYP450-mediated catecholization after 10 to 30 mins by HPLC analysis in presence of NADPH. It counts as ADME.
In series [4] the test system is CYP450. The series is described as follows: Drug metabolism in Sprague-Dawley rat liver microsomes assessed as CYP450-mediated catecholization after 10 to 30 mins by HPLC analysis in presence of NADPH. The class given is ADME.
The nature of series [5]: Drug metabolism in human liver microsomes assessed as UGT-mediated glucuronidation per mg of protein after 10 to 30 mins by HPLC analysis in presence of UDP-GlcUA. The class given is ADME.
The subject of series [6] is UGT. Nature of the series: Drug metabolism in Sprague-Dawley rat liver microsomes assessed as UGT-mediated glucuronidation after 10 to 30 mins by HPLC analysis in presence of UDP-GlcUA. It counts as ADME.
Series [7] in a line: Drug metabolism in Sprague-Dawley rat liver microsomes assessed as UGT-mediated glucuronidation per mg of protein after 10 to 30 mins by HPLC analysis in presence of UDP-GlcUA. It counts as ADME.
Series [8] has as its target T1, Cytochrome P450 2C19. Nature of the series: Activity of recombinant human CYP2C19 expressed in Saccharomyces cerevisiae AH22 cells assessed as enzyme-mediated sesamin dicatechol formation after 15 mins by HPLC analysis in presence of NADPH. The note with it: ah22, 0.25 h. It counts as ADME, cell-based.
Series [9] in a line: Drug metabolism in Sprague-Dawley rat liver microsomes assessed as CYP450-mediated catecholization per mg of protein after 10 to 30 mins by HPLC analysis in presence of NADPH. The class given is ADME.
Series [10] has as its system UGT. Nature of the series: Drug metabolism in human liver microsomes assessed as UGT-mediated glucuronidation after 10 to 30 mins by HPLC analysis in presence of UDP-GlcUA. The class given is ADME.

In general, Vmax refers to the top rate of the reaction or transport when substrate is in excess. One may read the Km as the concentration of substrate that gives half-maximal velocity.

T1 sequence (P33261 whole entry): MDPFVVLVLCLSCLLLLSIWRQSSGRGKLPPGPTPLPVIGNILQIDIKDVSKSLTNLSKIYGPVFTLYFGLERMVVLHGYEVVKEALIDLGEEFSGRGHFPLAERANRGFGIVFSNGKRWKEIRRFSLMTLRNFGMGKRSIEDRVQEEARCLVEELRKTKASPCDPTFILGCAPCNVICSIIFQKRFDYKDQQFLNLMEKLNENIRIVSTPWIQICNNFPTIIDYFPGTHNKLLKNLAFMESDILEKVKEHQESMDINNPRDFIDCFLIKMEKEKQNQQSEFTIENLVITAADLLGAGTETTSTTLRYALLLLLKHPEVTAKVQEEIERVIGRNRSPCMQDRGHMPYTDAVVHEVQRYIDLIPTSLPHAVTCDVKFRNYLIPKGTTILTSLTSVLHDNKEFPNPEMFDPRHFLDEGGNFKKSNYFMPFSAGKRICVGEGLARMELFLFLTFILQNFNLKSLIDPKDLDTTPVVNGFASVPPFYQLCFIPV
Sequence of Cytochrome P450 2C9 (P11712 whole entry): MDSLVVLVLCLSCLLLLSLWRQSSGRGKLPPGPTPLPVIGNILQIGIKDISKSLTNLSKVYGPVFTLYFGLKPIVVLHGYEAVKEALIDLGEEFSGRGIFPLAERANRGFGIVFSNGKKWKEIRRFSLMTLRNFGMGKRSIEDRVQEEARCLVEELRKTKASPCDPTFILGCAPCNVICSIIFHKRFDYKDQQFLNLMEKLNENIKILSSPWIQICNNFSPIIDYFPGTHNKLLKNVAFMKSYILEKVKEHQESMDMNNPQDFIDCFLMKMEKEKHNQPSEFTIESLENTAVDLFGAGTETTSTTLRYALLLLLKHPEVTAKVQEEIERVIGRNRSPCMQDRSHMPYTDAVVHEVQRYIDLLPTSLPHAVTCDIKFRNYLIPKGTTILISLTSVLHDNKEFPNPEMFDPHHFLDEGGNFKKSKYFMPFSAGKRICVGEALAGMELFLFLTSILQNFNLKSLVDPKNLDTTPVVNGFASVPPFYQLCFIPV

Regarding `Oc1ccc([C@H]2OC[C@H]3[C@@H]2CO[C@@H]3c2ccc3c(c2)OCO3)cc1O`, the Drug metabolism entry at Cytochrome P450 2C19 [1] is recorded as “metabolite_detected”; with Liver microsome, “metabolite_detected”; at Cytochrome P450 2C9 it was 0.83 nmol/min; at Cytochrome P450 2C19 [8], 10.4 nmol/min. The Vmax in series [2] came to 0.44 nmol/min/mg; in [5], 6 nmol/min/mg; in [7], 1.1 nmol/min/mg; in series [9], 3.7 nmol/min/mg. The Km in the series on CYP450 [3] amounted to 18.8 µM; in the series with CYP450 [4], 5.3 µM; in the series on UGT [6], 20.3 µM; with UGT [10], 18 µM.

The values above are taken from ChEMBL document CHEMBL3525932, “Comparison of metabolism of sesamin and episesamin by drug-metabolizing enzymes in human liver” (Drug Metab Dispos, 2012).
